Structures are written as SMILES.

Results on two compounds are retold here after patent US20140377340A1, “HLA-DR BINDING PEPTIDES AND THEIR USES” (priority 2007, published 2014).

One assay concerns the target T1, purified HLA DRB1*1302 (Homo sapiens, UniProt P01903+P01911, A100E/A169T/K41T/L162R/M171V/P40S/Q125H/Q178H/Q39Y/Q99D/R42S/S66N/T262R/V115G/W38E/Y61H).
T1 construct: purified from EBV transformed homozygous cell lines or single MHC allele transfected 721.221, C1R, or fibroblast lines; made in house
Nature of the assay: HLA-DR radioligand binding inhibition assay, DRB1*1302. An outline of the steps:
(§1)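 First, HLA-DR was purified from lysates on LB3.1 columns. Then 1 μM to 1 nM protein was incubated 2 days with 1-10 nM radiolabeled peptide at pH 4 to 7. Finally, complexes were captured for 3 hours and bound cpm determined.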

For a further assay, the target named is T2, purified HLA DRB1*1101 (Homo sapiens, UniProt P01903+P01911, A100R/A169T/A87E/I96F/K41T/L162R/M171V/P40S/Q125H/Q178H/Q39Y/Q99D/R42S/S66Y/T262R/V115G/W38E).
T2 construct: purified from EBV transformed homozygous cell lines or single MHC allele transfected 721.221, C1R, or fibroblast lines; made in house
Nature of the assay: HLA-DR radioligand binding inhibition assay, DRB1*1101. As to conditions: IC50 nM purified HLA DRB1 *1101, purified HLA DRB1*1101. An outline of the steps: as §1

Another assay concerns the target T3, purified HLA DRB1*0901 (Homo sapiens, UniProt P01903+P01911, A100R/A103E/D57H/D86V/F55Y/F60I/F76Y/I96F/K127E/L162R/M171V/P40D/Q125H/Q99R/R33Q/R42F/S133A/S66N/T210M/V115G/W38K/Y107V/Y59G/Y89S).
T3 construct: purified from EBV transformed homozygous cell lines or single MHC allele transfected 721.221, C1R, or fibroblast lines; made in house
The assay is described as follows: HLA-DR radioligand binding inhibition assay, DRB1*0901. As to conditions: IC50 nM purified HLA DRB1 *0901, purified HLA DRB1*0901. The procedure: (§2) Instead, wells of an opaque white 96-well Optiplate (Packard) are coated with 3 μg (100 μl@ 30 μg/ml) of HLA-specific antibody (Ab) that “capture” complexes of radiolabeled MHC and unlabeled peptide transferred from the molecular binding assay plate in 100 μl of 0.05% NP40/PBS. After a 3-hour incubation period, the supernatant is decanted and scintillation fluid (Microscint 20) added. Captured complexes are then measured on a microplate scintillation and luminescence counter (TopCount NXTTM; Packard).
(§3) HLA-DR purification. Fifteen distinct HLA-DR molecules were used in quantitative assays to measure the binding of peptides to solubilized HLA-DR molecules. […] Briefly, columns of inactivated Sepharose CL4B and Protein A Sepharose were used as pre-columns. HLA-DR molecules were captured by passage of lysates over LB3.1 monoclonal antibody (anti-HLA-DRA) columns. Antibody columns were washed with 10 mM Tris-HCL, pH8.0 with 1% (v/v) NP-40, followed by PBS containing 0.4% (w/v) n-octylglucoside.
(§4) Briefly, 1-10 nM of radiolabeled peptide was co-incubated for 2 days at either room temperature or 37° C. with 1 μM to 1 nM purified HLA-DR molecules in the presence of a cocktail of protease inhibitors. Assays were performed at various pH conditions, ranging from pH 4 to pH 7. […] After incubation, the percentage of HLA-DR-bound radioactivity is determined by capturing HLA-DR/peptide complexes on Optiplates (Packard Instruments, Meriden, Conn.) coated with the LB3.1 antibody and determining bound counts per minute using the TopCount microscintillation counter (Packard Instruments).

For the next assay, the target named is T4, purified HLA DRB3*0101 (Homo sapiens, UniProt P01903+P79483).
T4 construct: purified from EBV transformed homozygous cell lines or single MHC allele transfected 721.221, C1R, or fibroblast lines; made in house
The assay is described as follows: HLA-DR radioligand binding inhibition assay, DRB3*0101. As to conditions: IC50 nM purified HLA DRB3 *0101, purified HLA DRB3*0101. An outline of the steps:
(§5)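 HLA-DR-bound radioactivity was read by scintillation counting after LB3.1 antibody capture of HLA-DR/peptide complexes. Beforehand, 1-10 nM labeled peptide was incubated 2 days with 1 μM to 1 nM purified HLA-DR (room temperature or 37° C, pH 4-7, protease inhibitor cocktail) and competitor peptides at […], in 2-4 independent runs.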

For the next assay, the target named is T5, purified HLA DRB1*0701 (Homo sapiens, UniProt P01903+P01911, A100R/A102G/A103Q/D57E/D86V/E43K/F76Y/K127E/L162R/M171V/P40G/Q125H/Q99D/R33Q/R42Y/R54Q/S133A/S66F/T210M/V115G/Y107V/Y59L/Y89S).
T5 construct: purified from EBV transformed homozygous cell lines or single MHC allele transfected 721.221, C1R, or fibroblast lines; made in house
The assay is described as follows: HLA-DR radioligand binding inhibition assay, DRB1*0701. As to conditions: IC50 nM purified HLA DRB1 *0701, purified HLA DRB1*0701. In short, it runs like this:
as §1

For another assay, the target named is T6, purified HLA DRB1*0301 (Homo sapiens, UniProt P01903+P01911, A100K/A102G/A103R/A169T/F55Y/I96L/K41T/L162R/M171V/P40S/Q125H/Q178H/Q39Y/R42S/S66N/T106N/T262R/W38E/Y61H).
T6 construct: purified from EBV transformed homozygous cell lines or single MHC allele transfected 721.221, C1R, or fibroblast lines; made in house
The assay is described as follows: HLA-DR radioligand binding inhibition assay, DRB1*0301. As to conditions: IC50 nM purified HLA DRB1 *0301, purified HLA DRB1*0301. An outline of the steps: as §1

Another assay deals with T7, purified HLA DRB1*1501 (Homo sapiens, UniProt P01903+P01911).
T7 construct: purified from EBV transformed homozygous cell lines or single MHC allele transfected 721.221, C1R, or fibroblast lines; made in house
Nature of the assay: HLA-DR radioligand binding inhibition assay, DRB1*1501. In short, it runs like this: as §1

In a further assay the target is T8, purified HLA DRB1*1201 (Homo sapiens, UniProt P01903+P01911, A100R/A169T/D57E/D86V/F55L/H45Y/K41T/L162R/M171V/P40S/Q125H/Q178H/Q39Y/Q99D/R42G/S66L/T262R/V114A/V67L/W38E/Y59H/Y61H/Y89S).
T8 construct: purified from EBV transformed homozygous cell lines or single MHC allele transfected 721.221, C1R, or fibroblast lines; made in house
The assay is described as follows: HLA-DR radioligand binding inhibition assay, DRB1*1201. An outline of the steps: as §5

In a further assay the target is T9, purified HLA DRB1*0401 (Homo sapiens, UniProt P01903+P01911, A100K/A169T/F76Y/I96L/K127E/L162R/M171V/N62H/P40V/Q125Y/R42H/S133A/S149N/S66Y/V115G/V209L/W38E).
T9 construct: purified from EBV transformed homozygous cell lines or single MHC allele transfected 721.221, C1R, or fibroblast lines; made in house
The assay is described as follows: HLA-DR radioligand binding inhibition assay, DRB1*0401. As to conditions: IC50 nM purified HLA DRB1 *0401, purified HLA DRB1*0401. In short, it runs like this:
as §1

In the next assay the target is T10, purified HLA DRB5*0101 (Homo sapiens, UniProt P01903+Q30154).
T10 construct: purified from EBV transformed homozygous cell lines or single MHC allele transfected 721.221, C1R, or fibroblast lines; made in house
The assay is described as follows: HLA-DR radioligand binding inhibition assay, DRB5*0101. As to conditions: IC50 nM purified HLA DRB5 *0101, purified HLA DRB5*0101. An outline of the steps: as §1

The next assay concerns the target T11, purified HLA DRB4*0101 (Homo sapiens, UniProt P01903+P13762, G164S).
T11 construct: purified from EBV transformed homozygous cell lines or single MHC allele transfected 721.221, C1R, or fibroblast lines; made in house
The assay is described as follows: HLA-DR radioligand binding inhibition assay, DRB4*0101. As to conditions: IC50 nM purified HLA DRB4 *0101, purified HLA DRB4*0101. An outline of the steps: as §1

Another assay has as its target T12, purified HLA DRB1*0405 (Homo sapiens, UniProt P01903+P01911, A100R/A169T/D86S/F76Y/I96L/K127E/L162R/M171V/N62H/P40V/Q125Y/R42H/S133A/S149N/S66Y/V115G/V209L/W38E).
T12 construct: purified from EBV transformed homozygous cell lines or single MHC allele transfected 721.221, C1R, or fibroblast lines; made in house
The assay is described as follows: HLA-DR radioligand binding inhibition assay, DRB1*0405. As to conditions: IC50 nM purified HLA DRB1 *0405, purified HLA DRB1*0405. An outline of the steps:
as §1

Another assay has as its target T13, purified HLA DRB1*0802 (Homo sapiens, UniProt P01903+P01911, A100R/A103L/A169T/F76Y/H45Y/I96F/K41T/L162R/M171V/P40S/Q125H/Q178H/Q39Y/Q99D/R218S/R42G/S66Y/V115G/W38E).
T13 construct: purified from EBV transformed homozygous cell lines or single MHC allele transfected 721.221, C1R, or fibroblast lines; made in house
The assay is described as follows: HLA-DR radioligand binding inhibition assay, DRB1*0802. As to conditions: IC50 nM purified HLA DRB1 *0802, purified HLA DRB1*0802. The procedure: as §2
as §3, with “n-octylglucoside. […] The pH was reduced to 8.0 and the eluates were concentrated by centrifugation in Centriprep 30 concentrators at 2000 rpm (Amicon, Beverly, Mass.).” for “n-octylglucoside.”
as §4, with “Instruments). […] Competitor peptides are tested in 2-4 complete, independent experiments, at concentrations ranging from […].” for “Instruments).”

T2 sequence (P01903 26-254, other chains not shown): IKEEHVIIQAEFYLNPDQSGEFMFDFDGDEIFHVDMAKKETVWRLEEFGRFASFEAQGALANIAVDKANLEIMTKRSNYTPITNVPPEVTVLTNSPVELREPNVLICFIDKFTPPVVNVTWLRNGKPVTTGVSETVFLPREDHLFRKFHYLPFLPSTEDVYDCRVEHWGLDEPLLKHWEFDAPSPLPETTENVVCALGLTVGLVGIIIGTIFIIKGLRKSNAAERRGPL

Take `CC[C@H](C)[C@H](NC(=O)[C@H](CS)NC(=O)[C@H](CC(C)C)NC(=O)[C@@H](N)CCCCN)C(=O)N[C@@H](Cc1ccc(O)cc1)C(=O)N[C@H](C(=O)N[C@@H](CC(=O)O)C(=O)N[C@@H](CC(N)=O)C(=O)N[C@@H](CO)C(=O)N[C@H](C(=O)N[C@@H](CCCNC(=N)N)C(=O)N1CCC[C@H]1C(=O)N[C@@H](CCC(=O)O)C(=O)N[C@@H](CCC(=O)O)C(=O)N[C@@H](CC(C)C)C(=O)O)[C@@H](C)CC)[C@@H](C)O` [Peptide 9019.0159]: the IC50 (in general, the point on the concentration scale where inhibition reaches its midpoint) at purified HLA DRB1*1302 was 879 nM; at purified HLA DRB1*1101 it was more than 20000 nM; on purified HLA DRB1*0901 it was 15900 nM; on purified HLA DRB3*0101, more than 20000 nM; on purified HLA DRB1*0701, 1100 nM; at purified HLA DRB1*0301 it was 64 nM. The half-maximal inhibitory concentration (IC50) on purified HLA DRB1*1501 was 25 nM; at purified HLA DRB1*1201, more than 20000 nM; on purified HLA DRB1*0401, 95 nM; on purified HLA DRB5*0101, 4620 nM; at purified HLA DRB4*0101, 33 nM; on purified HLA DRB1*0405, 3170 nM.
For the compound `CC(C)C[C@H](NC(=O)[C@H](Cc1c[nH]cn1)NC(=O)[C@@H](N)CS)C(=O)N[C@@H](Cc1ccccc1)C(=O)N[C@@H](Cc1ccc(O)cc1)C(=O)N[C@@H](CC(N)=O)C(=O)N[C@@H](CCC(=O)O)C(=O)N[C@@H](CCC(N)=O)C(=O)N[C@@H](CCC(N)=O)C(=O)N[C@@H](CCC(=O)O)C(=O)N[C@@H](C)C(=O)N[C@@H](CCCNC(=N)N)C(=O)NCC(=O)N[C@H](C(=O)N[C@@H](Cc1c[nH]cn1)C(=O)O)C(C)C` [Peptide 9019.0023], the IC50 is more than 20000 nM at purified HLA DRB1*1101; more than 20000 nM at purified HLA DRB1*0901; more than 20000 nM on purified HLA DRB1*0701; more than 20000 nM at purified HLA DRB1*1501; more than 20000 nM on purified HLA DRB5*0101; 5310 nM at purified HLA DRB4*0101. The IC50 on purified HLA DRB1*0405 and at purified HLA DRB1*0802 was more than 20000 nM each time.
